Test results reported in the supplement of paper PMC10307832.

Legend:
Assay in all cases: relative viability (nuclei count vs DMSO), 5 days (fraction); higher = more cells survive
Kobe2602 + Crizotinib = compound: C1=CC(=CC=C1NC(=S)NNC2=C(C=C(C=C2[N+](=O)[O-])C(F)(F)F)[N+](=O)[O-])F [Kobe2602] + C[C@@H](Oc1cc(-c2cnn(C3CCNCC3)c2)cnc1N)c1c(Cl)ccc(F)c1Cl [Crizotinib] (partner 1 µM)
Procedure, shortened: (§1)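 Cells from lung cancer lines were seeded into 1536-well plates and, one day later, dosed by pin tool. Treatments were either a single drug or a fixed dose of an anchor drug with five library-drug doses (not always all listed) in √10 steps. After 5 days, nuclei were stained in a one-step fixation (final 0.05% Triton X-100, 1% formaldehyde, 1 ug/ml Hoechst) and counted on 4× images, and relative viability is the treated-to-vehicle nuclei ratio, as the median of duplicate plates.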

Zosuquidar + Tozasertib = compound: O[C@@H](COc1cccc2ncccc12)CN1CCN([C@@H]2c3ccccc3[C@@H]3[C@H](c4ccccc42)C3(F)F)CC1 [Zosuquidar] + Cc1cc(Nc2cc(N3CCN(C)CC3)nc(Sc3ccc(NC(=O)C4CC4)cc3)n2)n[nH]1 [Tozasertib] (partner 0.1 µM)
Procedure, shortened: as §1

Zosuquidar + Linsitinib = compound: O[C@@H](COc1cccc2ncccc12)CN1CCN([C@@H]2c3ccccc3[C@@H]3[C@H](c4ccccc42)C3(F)F)CC1 [Zosuquidar] + C[C@]1(O)C[C@@H](c2nc(-c3ccc4ccc(-c5ccccc5)nc4c3)c3c(N)nccn32)C1 [Linsitinib] (partner 1 µM)
Procedure, shortened: as §1

Cabozantinib + Lapatinib = compound: COc1cc2nccc(Oc3ccc(NC(=O)C4(C(=O)Nc5ccc(F)cc5)CC4)cc3)c2cc1OC [Cabozantinib] + CS(=O)(=O)CCNCc1ccc(-c2ccc3ncnc(Nc4ccc(OCc5cccc(F)c5)c(Cl)c4)c3c2)o1 [Lapatinib] (partner 2 µM)
Procedure, shortened: as §1

Cell Line | relative viability (Kobe2602 + Crizotinib; first compound 0.2 µM) | relative viability (Kobe2602 + Crizotinib; first compound 0.6325 µM) | relative viability (Kobe2602 + Crizotinib; first compound 2 µM) | relative viability (Kobe2602 + Crizotinib; first compound 6.325 µM) | relative viability (Kobe2602 + Crizotinib; first compound 20 µM) | relative viability (Zosuquidar + Tozasertib; first compound 0.01 µM) | relative viability (Zosuquidar + Tozasertib; first compound 0.03162 µM) | relative viability (Zosuquidar + Tozasertib; first compound 0.1 µM) | relative viability (Zosuquidar + Tozasertib; first compound 0.3162 µM) | relative viability (Zosuquidar + Tozasertib; first compound 1 µM) | relative viability (Zosuquidar + Linsitinib; first compound 0.01 µM) | relative viability (Zosuquidar + Linsitinib; first compound 0.03162 µM) | relative viability (Zosuquidar + Linsitinib; first compound 0.1 µM) | relative viability (Zosuquidar + Linsitinib; first compound 0.3162 µM) | relative viability (Zosuquidar + Linsitinib; first compound 1 µM) | relative viability (Cabozantinib + Lapatinib; first compound 0.02 µM) | relative viability (Cabozantinib + Lapatinib; first compound 0.06325 µM) | relative viability (Cabozantinib + Lapatinib; first compound 0.2 µM) | relative viability (Cabozantinib + Lapatinib; first compound 0.6325 µM) | relative viability (Cabozantinib + Lapatinib; first compound 2 µM)
NCI-H358 | 0.598 | 0.597 | 0.581 | 0.746 | 0.652 | 0.109 | 0.12 | 0.093 | 0.1 | 0.0956 | 0.768 | 0.726 | 0.715 | 0.735 | 0.75 | 0.449 | 0.418 | 0.454 | 0.358 | 0.369
NCI-H460 | 0.855 | 0.905 | 0.922 | 0.893 | 0.729 | 0.335 | 0.474 | 0.671 | 0.476 | 0.323 | 0.764 | 0.802 | 0.711 | 0.759 | 0.768 | 1.19 | 1.13 | 0.958 | 0.97 | 0.981
NCI-H520 | 0.694 | 0.711 | 0.746 | 0.757 | 0.763 | 0.413 | 0.441 |  | 0.392 | 0.416 | 0.984 | 0.945 | 0.888 | 0.946 | 1.08 | 1.08 | 0.924 | 0.72 | 0.973 | 0.566
NCI-H596 | 0.723 | 1.03 | 0.944 | 1.21 | 1 | 0.877 |  | 0.986 | 1.16 | 0.905 | 1.03 | 1.09 | 1.03 | 1.05 | 1.03 | 1.17 | 1.21 | 0.956 | 1.05 | 1.02
NCI-H647 | 1.2 | 1.24 | 0.887 | 1.07 | 1.03 | 0.26 | 0.266 | 0.564 | 0.228 | 0.284 | 1.16 | 1.19 | 1.3 | 1.28 | 1.24 | 1.29 | 1.45 | 1.15 | 1.13 | 0.734
NCI-H650 | 0.683 | 0.692 | 0.854 | 0.849 | 0.636 | 0.795 | 0.748 | 0.739 | 0.803 | 0.791 | 0.886 | 0.629 |  | 0.965 | 0.921 | 0.787 | 1.06 | 1.23 | 0.491 | 0.766
NCI-H661 | 0.933 |  | 0.971 | 1.06 | 1.1 | 0.354 | 0.313 | 0.353 | 0.328 | 0.33 | 0.614 | 0.653 | 0.447 | 0.704 | 0.69 | 0.46 | 0.467 | 0.502 | 0.449 | 0.343
NCI-H727 | 0.767 | 0.69 | 0.776 | 0.64 | 0.865 | 0.675 | 0.484 | 0.45 | 0.439 | 0.401 | 0.328 | 0.343 | 0.335 | 0.237 | 0.274 | 0.61 | 1.27 | 0.702 | 0.806 | 0.783
